Measurements from ChEMBL document CHEMBL2203162, “Triazole pyrimidine nucleosides as inhibitors of Ribonuclease A. Synthesis, biochemical, and structural evaluation” (Bioorg Med Chem, 2012).

Key:
[1] = Competitive inhibition of bovine pancreatic RNase A type 12-A by Dixon plot analysis; parameters: species or system Bos taurus
[2] = target: T1, Non-secretory ribonuclease (Homo sapiens, UniProt P10153); experiment: Inhibition of EDN
T1 sequence (P10153 whole entry): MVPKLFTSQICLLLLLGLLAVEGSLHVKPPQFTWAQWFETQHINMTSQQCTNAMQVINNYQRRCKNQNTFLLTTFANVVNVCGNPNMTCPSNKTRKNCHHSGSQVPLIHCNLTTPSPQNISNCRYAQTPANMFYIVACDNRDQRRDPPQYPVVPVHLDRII

Angiogenin = Angiogenin (Homo sapiens, UniProt P03950); experiment: Inhibition of ANG
[3] = target: Ribonuclease pancreatic (Bos taurus) (UniProt P61823); experiment: Inhibition of RNase A
Ribonuclease pancreatic = target: T2, Ribonuclease pancreatic (Bos taurus, UniProt P61823); experiment: Inhibition of bovine pancreatic RNase A
T2 sequence (P61823 whole entry): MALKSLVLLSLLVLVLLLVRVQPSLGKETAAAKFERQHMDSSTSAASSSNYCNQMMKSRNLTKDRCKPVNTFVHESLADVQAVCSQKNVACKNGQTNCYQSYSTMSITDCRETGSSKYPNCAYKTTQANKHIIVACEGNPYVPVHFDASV

[4] = Competitive inhibition of bovine pancreatic RNase A type 12-A assessed as degradation of yeast tRNA preincubated for 10 mins before addition of the enzyme by double reciprocal plot analysis; parameters: species or system Bos taurus
Bos taurus = species on record: Bos taurus; experiment: Competitive inhibition of bovine pancreatic RNase A type 12-A assessed as degradation of yeast tRNA at 50 uM preincubated for 10 mins before addition of the enzyme by double reciprocal plot analysis

Sequence of Angiogenin (P03950 whole entry): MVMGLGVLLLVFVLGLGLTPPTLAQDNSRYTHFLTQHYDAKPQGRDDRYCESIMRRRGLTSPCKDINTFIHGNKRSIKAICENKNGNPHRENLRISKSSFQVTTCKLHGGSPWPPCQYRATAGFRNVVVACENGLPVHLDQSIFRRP

A Ki [1] of 650 µM was found for `O=c1ccn([C@@H]2O[C@H](COP(=O)(O)OP(=O)(O)O)[C@@H](O)[C@H]2O)c(=O)[nH]1` [URIDINE_DIPHOSPHATE] in this work.
A Ki [2] of 0.18 µM, a Ki (Angiogenin) of 360 µM and a Ki [3] of 0.027 µM were found for `Nc1ncnc2c1ncn2[C@@H]1O[C@H](COP(=O)(O)OP(=O)(O)O[C@H]2C[C@H](n3ccc(=O)[nH]c3=O)O[C@@H]2COP(=O)(O)O)[C@@H](OP(=O)(O)O)[C@H]1O` in this work.
A Ki (Ribonuclease pancreatic) of 0.24 µM was found for `O=c1ccn(Cc2cn([C@@H]3O[C@H](CO)[C@@H](O)[C@H]3O)nn2)c(=O)[nH]1` in this work.
A Ki [4] of 44.5 µM was found for `O=c1[nH]c(=O)n([C@@H]2O[C@H](CO)[C@@H](O)[C@H]2O)cc1Cl` in this work.
An inhibition (Bos taurus) of 20% was found for `O=c1[nH]c(=O)n(Cc2cn([C@@H]3O[C@H](CO)[C@@H](O)[C@H]3O)nn2)cc1Br` in this work.
A Ki [4] of 44.1 µM was found for `Cc1cn([C@@H]2O[C@H](CO)[C@@H](O)[C@H]2O)c(=O)[nH]c1=O` in this work.
A Ki [4] of 94.8 µM was found for `O=c1[nH]c(=O)n(Cc2cn([C@@H]3O[C@H](CO)[C@@H](O)[C@H]3O)nn2)cc1Cl` in this work.
A Ki [4] of 33.6 µM was found for `O=c1[nH]c(=O)n([C@@H]2O[C@H](CO)[C@@H](O)[C@H]2O)cc1F` [5-FLUOROURIDINE] in this work.
A Ki [4] of 28.5 µM was found for `O=c1ccn([C@@H]2O[C@H](CO)[C@@H](O)[C@H]2O)c(=O)[nH]1` [URIDINE] in this work.
A Ki [1] of 4000 µM was found for `O=c1ccn([C@@H]2O[C@H](COP(=O)(O)O)[C@@H](O)[C@H]2O)c(=O)[nH]1` in this work.
A Ki [4] of 69.1 µM was found for `O=c1[nH]c(=O)n([C@@H]2O[C@H](CO)[C@@H](O)[C@H]2O)cc1Br` in this work.
